Data: patent US20230203023A1, “SALT AND CRYSTAL FORMS OF GLP-1R AGONISTS AND USES THEREOF” (QILU REGOR THERAPEUTICS INC., priority 2020, published 2023)
Counter-ions that a name gives are not always drawn.

Key:
Type in all cases: physicochemical
[1] = Kinetic solubility test in water and bio-relevant media (SGF, FaSSIF, FeSSIF); conditions: for S: solubility: 37° C.; for Purity (%), area percentage of API: for reference only (suspensions); for FC: form change: residual solids by XRPD; for pH: supernatant
Procedure: (§1) Weigh 100 mg of sodium chloride and 50 mg of Triton X-100 into a 50-mL volumetric flask. Add appropriate volume of purified water and sonicate until all solids are completely dissolved. Add about 68 μL of 12 M HCl and sufficient purified water closely to the target volume and adjust to pH 1.8. Dilute to volume with purified water, mix well and check the pH with a pH meter.
as §1, with “170” for “100”, “phosphate monobasic, 21” for “chloride and 50”, “sodium hydroxide and 310 mg of sodium chloride, 110 mg of SIF powder” for “Triton X-100”, “Add” for “Add about 68 μL of 12 M HCl and”, “6.5.” for “1.8.”
Weigh 0.41 mL of glacial acetic acid, 202 mg of sodium hydroxide and 594 mg of sodium chloride, 560 mg of SIF powder into a 50-mL volumetric flask. Add appropriate volume of purified water to dissolve the solids. Then add sufficient purified water closely to the target volume and adjust to pH 5.0. Dilute to volume with purified water, mix well and check the pH with a pH meter.
Kinetic solubility was evaluated in water and three bio-relevant media (SGF, FaSSIF and FeSSIF) for 1/4/24 hours. 3-4 mg of solids were suspended in 3 mL each medium (solid loading: 1 mg/mL, calculated using freeform) to get a suspension, followed by rolling (25 rpm) at 37° C. for 1/4/24 hours. At each time point, ˜1.0 mL of suspension was sampled out for centrifugation (12000 rpm, 2 min) and filtration through 0.45 μm PTFE membrane to obtain supernatant for HPLC and pH tests, the residual solids were analyzed by XRPD.
Kinetic solubility was evaluated for 1:1 Compound II Citrate Salt (Form A), 1:1 Compound II Tris Salt (Form B), and freeform of Compound II in water and three bio-relevant media (SGF, FaSSIF and FeSSIF) for 1/4/24 hours. 3-4 mg of solids were suspended in 3 mL each medium (solid loading:
1 mg/mL, calculated using freeform) to get a suspension, followed by rolling (25 rpm) at 37° C. for 1/4/24 hours. At each time point, ˜1.0 mL of suspension was sampled out for centrifugation (12000 rpm, 2 min) and filtration through 0.45 μm PTFE membrane to obtain supernatant for HPLC and pH tests, the residual solids were analyzed by XRPD. […] The purity results were for reference only since the samples were all suspensions.

[2] = Solid stability evaluation (I/II), XRPD and HPLC
Procedure: To evaluate the physical and chemical stability of 1:1 Compound I Tris Salt (Form A) and amorphous free form, samples were stored under the conditions of 60° C. for 1 day and 25° C./60% RH or 40° C./75% RH for 1 week, respectively.
To evaluate the physical and chemical stability of 1:1 Compound II Citrate Salt (Form A), 1:1 Compound II Tris Salt (Form B) and freeform, samples were stored under the conditions of 60° C. for 1 day and 25° C./60% RH or 40° C./75% RH for 1 week, respectively.

[3] = VH-XRPD, dehydration of the hydrate
Procedure: VH-XRPD and single crystal structure determination were performed for 1:1 Compound I Tris Salt (Form A) and it was identified as a monohydrate, which would dehydrate at the ≤30%RH condition.
VH-XRPD was performed for a 1:1 Compound II tris salt (Form B) sample for further identification. […] Combining the characterization results, it is believe that 1:1 Compound II tris salt (Form B) is a hydrate, which would dehydrate below ≤10% RH.

[4] = Solid stability evaluation (II/II), HPLC in triplicate
Procedure: The chemical stability of 1:1 Compound II Citrate Salt (Form A) and 1:1 Compound II Tris Salt (Form B) was further evaluated at solid state, samples were stored under the ambient condition or 40° C./75% RH for 1 day and 3 days, respectively.

SMILES: N#Cc1ccc(COc2cccc(C3=CCN(Cc4nc5ccc(C(=O)O)cc5n4C[C@@H]4CCO4)CC3)n2)c(F)c1 [Tris salt Form B, (S)-2-((6-((4-cyano-2-fluorobenzyl)oxy)-3′,6′-dihydro-[2,4′-bipyridin]-1′(2′H)-yl)methyl)-1-(oxetan-2-ylmethyl)-1H-benzo[d]imidazole-6-carboxylic acid]
- S: solubility ([1]; FaSSIF, 1 hour): 70 µg/mL
- Purity (%), area percentage of API ([1]; FaSSIF, 1 hour): 72.58%
- S: solubility ([1]; FaSSIF, 4 hours): 50 µg/mL
- Purity (%), area percentage of API ([1]; FaSSIF, 4 hours): 59.86%
- S: solubility ([1]; FaSSIF, 24 hours): 100 µg/mL
- Purity (%), area percentage of API ([1]; FaSSIF, 24 hours): 72.13%
- S: solubility ([1]; FeSSIF, 1 hour): 200 µg/mL
- Purity (%), area percentage of API ([1]; FeSSIF, 1 hour): 98.18%
- S: solubility ([1]; FeSSIF, 4 hours): 300 µg/mL
- Purity (%), area percentage of API ([1]; FeSSIF, 4 hours): 93.37%
- S: solubility ([1]; FeSSIF, 24 hours): 300 µg/mL
- Purity (%), area percentage of API ([1]; FeSSIF, 24 hours): 80.52%
- S: solubility ([1]; H2O, 1 hour): 400 µg/mL
- Purity (%), area percentage of API ([1]; H2O, 1 hour): 93.07%
- S: solubility ([1]; H2O, 4 hours): 900 µg/mL
- Purity (%), area percentage of API ([1]; H2O, 4 hours): 93.13%
- S: solubility ([1]; H2O, 24 hours): 600 µg/mL
- Purity (%), area percentage of API ([1]; H2O, 24 hours): 92.03%
- Solubility in H2O, comparison in words ([1]; H2O, compared with the other tested materials): better solubility
- S: solubility ([1]; SGF, 1 hour): 600 µg/mL
- Purity (%), area percentage of API ([1]; SGF, 1 hour): 93.44%
- S: solubility ([1]; SGF, 4 hours): 200 µg/mL
- Purity (%), area percentage of API ([1]; SGF, 4 hours): 84.69%
- S: solubility ([1]; SGF, 24 hours): 200 µg/mL
- Purity (%), area percentage of API ([1]; SGF, 24 hours): 82.04%
- FC: form change ([1]; FaSSIF, 4 hours): Yes
- FC: form change ([1]; FaSSIF, 24 hours): Yes
- FC: form change ([1]; FeSSIF, 1 hour): No
- FC: form change ([1]; FeSSIF, 4 hours): Yes
- FC: form change ([1]; FeSSIF, 24 hours): Yes
- FC: form change ([1]; H2O, 1 hour): No
- FC: form change ([1]; H2O, 4 hours): Yes
- FC: form change ([1]; H2O, 24 hours): Yes
- FC: form change ([1]; SGF, 1 hour): Yes
- FC: form change ([1]; SGF, 4 hours): Yes
- FC: form change ([1]; SGF, 24 hours): Yes
- pH ([1]; FaSSIF, 1 hour): 6.6
- pH ([1]; FaSSIF, 4 hours): 6.6
- pH ([1]; FaSSIF, 24 hours): 6.5
- pH ([1]; FeSSIF, 1 hour): 5.1
- pH ([1]; FeSSIF, 4 hours): 5.1
- pH ([1]; FeSSIF, 24 hours): 5.0
- pH ([1]; H2O, 1 hour): 7.6
- pH ([1]; H2O, 4 hours): 7.8
- pH ([1]; H2O, 24 hours): 7.9
- pH ([1]; SGF, 1 hour): 1.9
- pH ([1]; SGF, 4 hours): 2.0
- pH ([1]; SGF, 24 hours): 2.0
- Solubility in SGF, FaSSIF and FeSSIF compared with freeform ([1]; within 1 hour): higher than that of freeform
- Form change ([2]; 25° C./60% RH (open), 1 week): No
- Observation ([2]; 25° C./60% RH (open), 1 week): Yellow
- Purity (area %) ([2]; 25° C./60% RH (open), 1 week): 93.86 area %
- Form change ([2]; 40° C./75% RH (open), 1 week): No
- Observation ([2]; 40° C./75% RH (open), 1 week): Yellow
- Purity (area %) ([2]; 40° C./75% RH (open), 1 week): 94.13 area %
- Chemical stability compared with free form ([2]; 60° C. 1 day, 25° C./60% RH or 40° C./75% RH 1 week): better chemical stability
- Form change ([2]; 60° C. (capped), 1 day): No
- Observation ([2]; 60° C. (capped), 1 day): Yellow
- Purity (area %) ([2]; 60° C. (capped), 1 day): 92.98 area %
- Form change ([2]; Initial): No
- Observation ([2]; Initial): Yellowish
- Purity (area %) ([2]; Initial): 94.56 area %
- Relative humidity at which the hydrate would dehydrate [3]: ≤ 10 % RH
- Ave. Purity (area %) ([4]; 40° C./75% RH (open), 1 day): 94.5 area %
- Ave. Purity (area %) ([4]; 40° C./75% RH (open), 3 days): 94.8 area %
- Ave. Purity (area %) ([4]; Ambient condition (open), 1 day): 94.4 area %
- Ave. Purity (area %) ([4]; Ambient condition (open), 3 days): 94.2 area %
- Ave. Purity (area %) ([4]; Initial): 95.5 area %
